Measurements published in PubChem BioAssay AID1259333 (Broad Institute, 2017).
Active and inactive are the calls of the source. The rule behind the calls is not given here; tested in parental BL2 cells.

Test system: cytotoxicity, CellTiter-Glo ATP luminescence
Experiment: loss of cell viability by ATP content – CellTiter-Glo, cytotoxicity control, dose response (AID 1259333)

Structure (SMILES) | AC50
C[C@H]1CN([C@@H](C)CO)C(=O)c2ccccc2-c2ccccc2CO[C@@H]1CN(C)Cc1ccccc1C(F)(F)F | 10.5 µM
CSc1ccc2c(c1)N(CCC1CCCCN1C)c1ccccc1S2 (centres undefined) | 8.67 µM
CC(C)c1c(O)ccc2c1CCC1C(C)(C)CCC[C@]21C (some centres undefined) | 6.74 µM
COC(=O)c1ccccc1-c1c2ccc(=N)cc-2oc2cc(N)ccc12 | > 20 µM (inactive)
COC(=O)c1nn(-c2ccc(-c3ccccc3)cc2)cc1O | > 20 µM (inactive)
COc1ccc(CC2C(=O)NC(C)C(=O)N(C)C3Cc4ccc(cc4)Oc4cc(ccc4O)CC(C(=O)NC(C)C(=O)NC(C)C(=O)N2C)N(C)C3=O)cc1 (centres undefined) | 10.8 µM
O=C(COC(=O)c1ccccc1C(=O)c1ccc(Cl)c([N+](=O)[O-])c1)NC1CC1 | 2.45 µM
COc1ccc2c3c(n(C)c2c1)[C@@H](CO)N(C(=O)Nc1ccc(F)cc1)CC31CN(Cc2ccccc2F)C1 | > 20 µM (inactive)
COc1cccc(C#Cc2ccc([C@H]3[C@@H](C#N)N(C(=O)c4ccccn4)[C@@H]3CO)cc2)c1 | 9.74 µM
O=C(C1CCC1)N1CCc2cc(S(=O)(=O)N3CCCCC3)ccc21 | 2.65 µM
CC(C)(C)c1cc(C=C(C#N)C#N)cc(C(C)(C)C)c1O | > 20 µM (inactive)
C[C@@H]1CCCCO[C@@H](CN(C)Cc2ccc(Cl)c(Cl)c2)[C@H](C)CN([C@H](C)CO)C(=O)c2cc(NS(=O)(=O)c3cccs3)ccc2O1 | 8.68 µM
CC1=CC(C)(C)N=C(Nc2nc(C)c3cc(C)cc(C)c3n2)N1 | 1.46 µM
COc1cccc2c1C(=O)c1c(O)c3c(c(O)c1C2=O)C[C@@](O)(C(C)=O)C[C@@H]3OC1CC(N)C(O)C(C)O1 (some centres undefined) | 2.72 µM
CN1C(=O)/C(=N\OC(=O)c2cccc3ccccc23)c2ccccc21 | 4.04 µM
CC(C)[C@H](N)C(=O)N[C@H]1CCC2C3CC=C4C[C@@H](O)CC[C@]4(C)C3CC[C@@]21C (some centres undefined) | 6.89 µM
CC(=O)Nc1ccc(Sc2ccc([N+](=O)[O-])o2)cc1 | 6.13 µM
COCC(C)n1c(C)cc(C(=O)COC(=O)c2cccn2C)c1C (centres undefined) | > 7 µM (inactive)
OC(c1cc(-c2cccc(Cl)c2)nc2ccccc12)C1CCCCN1 (centres undefined) | 2.86 µM
C[C@H](CO)N1C[C@H](C)[C@@H](CN(C)Cc2cccc(C(F)(F)F)c2)OCc2ccccc2-c2c(n(C)c3ccccc23)C1=O | 6.4 µM

Structure (SMILES) | AC50
O=C(Cn1ncc(Cl)c(Cl)c1=O)NC1CCCCC1 | 9.64 µM
N#Cc1cccc(-c2ccc(C3[C@H]4CNC[C@@H]3N4Cc3ccc4c(c3)OCO4)cc2)c1 (some centres undefined) | > 20 µM (inactive)
O=C1NC2C(O)C(O)C(O)C(O)C2c2cc3c(c(O)c21)OCO3 (centres undefined) | 9.05 µM
COc1ccc(C#Cc2ccc([C@H]3[C@@H](CO)N4CCCCN(S(=O)(=O)c5cn(C)cn5)C[C@H]34)cc2)cc1 | 10.8 µM
COc1ccc2c3c([nH]c2c1)[C@H](CO)N(C(=O)Nc1ccc(F)cc1)CC31CCN(C(=O)c2ccccc2F)CC1 | 8.44 µM
Cc1noc(C)c1S(=O)(=O)Nc1ccc2c(c1)C(=O)N([C@@H](C)CO)C[C@H](C)[C@@H](CN(C)C(=O)Nc1cccc3ccccc13)OCCCC[C@H](C)O2 | > 20 µM (inactive)
C[C@@H]1CC=CC[C@H](c2ccc(F)cc2)NC(=O)[C@@H](Cc2ccccc2)N(C)C(=O)c2ccccc2O1 (mixture of isomers) | > 20 µM (inactive)
Clc1ccc(C(Cn2ccnc2)OCc2ccsc2Cl)c(Cl)c1 (centres undefined) | > 20 µM (inactive)
COc1cc2cc(C(=O)N3CC(COS(C)(=O)=O)c4ccc(O)cc43)[nH]c2c(OC)c1OC (centres undefined) | 0.276 µM
C[C@H]1CN([C@@H](C)CO)C(=O)c2c(c3ccccc3n2C)-c2ccccc2CO[C@H]1CN(C)C(=O)Nc1cccc(C(F)(F)F)c1 | 0.878 µM
C[C@@H]1CN([C@@H](C)CO)C(=O)c2c(c3ccccc3n2C)-c2ccccc2CO[C@H]1CN(C)Cc1cccc(C(F)(F)F)c1 | 3.94 µM
CC(C)Cc1ccc(C(C)CC2=CCC(CN(C)C)C2=O)cc1 (centres undefined) | 3.42 µM
CCc1cc2c(=O)c(-c3ccc4c(c3)OCCO4)coc2c(CN2CCCCC2C)c1O (centres undefined) | 8.84 µM
O=S(=O)(c1cccc2cnccc12)N1CCNCC1 | 7.09 µM
[O-]C(=C(C(=S)Nc1cccc2ccccc12)[n+]1ccccc1)c1ccc2c(c1)OCCO2 | > 7 µM (inactive)
N#C[C@H]1[C@@H](c2ccc(C#CC3CCCCC3)cc2)[C@@H](CO)N1C(=O)Nc1ccc(F)cc1 | > 20 µM (inactive)
CC(C)(C)CC(C)(C)c1ccc(O)c(Cc2ccc(Cl)cc2Cl)c1 | 7.05 µM
COc1ccc(CN2CC3(CN(C(=O)Cc4ccccc4)C3)c3c([nH]c4cc(OC)ccc34)[C@@H]2CO)cc1 | 9.43 µM
CC(C)(C)[C@H](N)C(=O)N[C@H]1CCC2C3CC=C4C[C@@H](O)CC[C@]4(C)C3CC[C@@]21C (some centres undefined) | 5.7 µM
C[C@@H]1CN([C@@H](C)CO)C(=O)c2c(c3ccccc3n2C)-c2ccccc2CO[C@@H]1CN(C)Cc1cccc(C(F)(F)F)c1 | > 20 µM (inactive)

Structure (SMILES) | AC50
Cc1cc(OCC(=O)OCC(=O)NCc2ccco2)ccc1Cl | 2.21 µM
c1ccc(-c2nc(-c3ccccn3)no2)cc1 | 11.5 µM
OCC1OC(n2cnc3cc(Cl)c(Cl)cc32)C(O)C1O (centres undefined) | > 20 µM (inactive)
COc1ccc2c3c(n(C)c2c1)[C@H](CO)N(C(=O)Nc1ccc(F)cc1)CC31CCN(C(=O)c2ccc3c(c2)OCO3)CC1 | > 20 µM (inactive)
CC(C)OC(=O)c1cn(Cc2c(F)cccc2F)c2sc(-c3ccc(NC(=O)C(C)C)cc3)c(CN(C)Cc3ccccc3)c2c1=O | > 20 µM (inactive)
C[C@@H]1CN([C@@H](C)CO)C(=O)c2c(c3ccccc3n2C)-c2ccccc2CO[C@H]1CN(C)C(=O)Nc1cccc(C(F)(F)F)c1 | 1.4 µM
Cn1cnc(CCNC(=O)C[C@@H]2CC[C@@H]3[C@H](COC[C@@H](O)CN3C(=O)Nc3ccc(C(F)(F)F)cc3)O2)c1 | > 20 µM (inactive)
NC(c1csc(NC(=O)Nc2cccc(Cl)c2)n1)c1ccccc1Cl (centres undefined) | > 20 µM (inactive)
c1ccc2sc(-c3ccc4c(c3)OCO4)nc2c1 | 5.19 µM
N#C[C@H]1[C@H](c2ccc(C#Cc3ccccc3F)cc2)[C@@H](CO)N1C(=O)C1CC1 | > 20 µM (inactive)
COc1ccc(NC(=O)O/N=C/c2c(C)nn(C(C)(C)C)c2C)cc1 | 7.85 µM
C[C@@H]1CN([C@@H](C)CO)C(=O)c2ccccc2-c2ccccc2CO[C@@H]1CN(C)Cc1ccccc1C(F)(F)F | > 20 µM (inactive)
COc1ccc(S(=O)(=O)Nc2ccc3c(c2)C(=O)N([C@@H](C)CO)C[C@@H](C)[C@@H](CN(C)Cc2ccc(C(F)(F)F)cc2)OCCCC[C@H](C)O3)cc1 | > 20 µM (inactive)
C[C@@H]1CN([C@H](C)CO)C(=O)c2c(c3ccccc3n2C)-c2ccccc2CO[C@H]1CN(C)C(=O)Nc1cccc(Cl)c1Cl | 10.1 µM
C[C@H]1CN([C@@H](C)CO)C(=O)c2ccccc2-c2ccccc2CO[C@H]1CN(C)Cc1ccc(Oc2ccccc2)cc1 | > 20 µM (inactive)
C[n+]1c(-c2ccccc2)cc2c(=Cc3ccc([N+](=O)[O-])cc3)c3ccccc3n21 | 9.92 µM
C=CC[n+]1c(/C=C2\C=Cc3cc(C)ccc3N2CC)ccc2ccccc21 | 7.46 µM
C[C@@H]1O[C@@H](O[C@H]2C[C@@H](O)[C@]3(CO)[C@H]4[C@H](O)C[C@]5(C)[C@@H](C6COC(=O)C6)CC[C@]5(O)[C@@H]4CC[C@]3(O)C2)[C@H](O)[C@H](O)[C@H]1O (some centres undefined) | 1.87 µM
CCS(=O)(=O)N1[C@H](CO)[C@@H](c2ccc(C#Cc3ccccc3F)cc2)[C@@H]1C#N | > 20 µM (inactive)
